Assay results published in patent publication US20090062122A1, “Cotton Growth Regulator” (FMC Corporation, priority 2006, published 2009).

Key:
[1] = tested on: cotton, variety D&PL 555; assay: % defoliation of cotton plants, field trial; type: in vivo; details: 20% open boll application, 1 replicate
Description: (§1) The trial was performed on cotton, variety D&PL 555. The formulated test compounds were diluted to the appropriate concentrations with water to which a crop oil concentrate (1% to 2% v/v) or a non-ionic surfactant (0.25% v/v) was added. The application of the test composition as a cotton plant growth regulator was performed using pressurized, over-the-top spray equipment consisting of a research scale boom sprayer. Deposit of the test composition was primarily to the top of the cotton plants, minimizing spray deposition to lower branches, leaves and fruit. The finished spray volume was 10 gallons per acre, with sprayer nozzle design, orientation and nozzle pressures chosen to prevent spray drift. Applications were made at first sign of cotton boll opening and at 15%, 20% and 40% open bolls.
(§2) The experimental design used randomized plots with 1 to 4 treatment rates of test composition and from 1 to 10 replications depending on the test (sees tables below). The size of each experimental plot was about 15 m^2. Testing was performed in Texas, North Carolina, Mississippi and Georgia.
(§3) Percent desiccation, percent defoliation, percent terminal control and percent open bolls were evaluated at 7 and 14 days after application (DAA) of the test composition. Inspection of cotton plants for insect control of armyworm larvae was performed at 2 DAA and insect damage to bolls was performed at the time of harvest
Defoliation refers to removal of leaves. Percent defoliation rating approximates the proportion of leaves of all sizes shed per 100 leaves present prior to application of the cotton growth regulator compound. An evaluation of the foliage in the untreated check plots was first undertaken. Then the test plots were individually evaluated. The percent of leaves dropped by the plants in the treated plot was determined using observations within the plot and comparisons to foliage in the untreated plot.
(§4) The results, shown as the mean of the indicated number of replications, were compared with results observed in the same trials with an untreated control.

[2] = tested on: cotton, variety D&PL 555; assay: % desiccation of cotton leaves, field trial; type: in vivo
Description: as §1, §2, §3
Desiccation refers to leaves or portions of leaves dried to debris following tissue death. […] An evaluation of the condition of leaves in the untreated check plots were observed. Then the test plots were individually evaluated. The percent of all leaves completely or partially desiccated by the test application were recorded, based upon live leaves and leaf debris within the test plot relative to foliage present in the untreated plot.
as §4

CC1=C(C)S(=O)(=O)CCS1(=O)=O [dimethipin, 2,3-dihydro-5,6-dimethyl-1,4-dithiin-1,1,4,4-tetraoxide]
% Defoliation ([1]; 0.23 lb ai/a, 7 DAA): 28% | % Desiccation ([2]; 20% open boll application, 0.23 lb ai/a, 7 DAA, 1 replicate): 40%

CCCCCOC(=O)COc1cc(N2C(=O)C3=C(CCCC3)C2=O)c(F)cc1Cl [flumiclorac-pentyl ester, pentyl [2-chloro-4-fluoro-5-(1,3,4,5,6,7-hexahydro-1,3-dioxo-2H-isoindol-2-yl)phenoxy]acetate]
% Desiccation ([2]; first open boll application, 0.027 lb ai/a, 7 DAA, 3 replicates): 16% | % Desiccation ([2]; first open boll application, 0.027 lb ai/a, 14 DAA, 3 replicates): 13% | % Desiccation ([2]; first open boll application, 0.04 lb ai/a, 7 DAA, 3 replicates): 19% | % Desiccation ([2]; first open boll application, 0.04 lb ai/a, 14 DAA, 3 replicates): 12%

COC(=O)CSc1cc(/N=c2\sc(=O)n3n2CCCC3)c(F)cc1Cl [fluthiacet-methyl, methyl [[2-chloro-4-fluoro-5-[(tetrahydro-3-oxo-1H,3H-[1,3,4]thiadiazolo[3,4-a]pyridazin-1-ylidine)amino]phenyl]thio]acetate]
% Desiccation ([2]; first open boll application, 0.0018 lb ai/a, 7 DAA, 1 replicate): 25% | % Desiccation ([2]; first open boll application, 0.0018 lb ai/a, 14 DAA, 1 replicate): 17%

CC(C)N.O=C(O)CNCP(=O)(O)O [glyphosate, N-(phosphonomethyl)glycine isopropylamine salt]
% Defoliation ([1]; 0.5 lb ai/a, 14 DAA): 7% | % Desiccation ([2]; 20% open boll application, 0.5 lb ai/a, 14 DAA, 1 replicate): 67%

C[n+]1ccc(-c2cc[n+](C)cc2)cc1.[Cl-].[Cl-] [paraquat, 1,1′-dimethyl-4,4′-bipyridinium dichloride]
% Defoliation ([1]; 0.13 lb ai/a, 14 DAA): 8% | % Desiccation ([2]; 20% open boll application, 0.13 lb ai/a, 14 DAA, 1 replicate): 90%

CCOC(=O)COc1cc(-c2nn(C)c(OC(F)F)c2Cl)c(F)cc1Cl [pyraflufen-ethyl, ethyl 2-chloro-5-[4-chloro-5-(difluoromethoxy)-1-methyl-1H-pyrazol-3-yl]-4-fluorophenoxyacetate]
% Desiccation ([2]; first open boll application, 0.0008 lb ai/a, 7 DAA, 3 replicates): 13% | % Desiccation ([2]; first open boll application, 0.0008 lb ai/a, 14 DAA, 3 replicates): 11% | % Desiccation ([2]; first open boll application, 0.0016 lb ai/a, 7 DAA, 3 replicates): 19% | % Desiccation ([2]; first open boll application, 0.0016 lb ai/a, 14 DAA, 3 replicates): 13%

CCCCSP(=O)(SCCCC)SCCCC [tribufos, S,S,S-tributyl phosphorotrithioate]
% Defoliation ([1]; 0.14 lb ai/a, 7 DAA): 30% | % Desiccation ([2]; 20% open boll application, 0.14 lb ai/a, 7 DAA, 1 replicate): 78%
